Data from patent US20230270871A1, “MARKERS FOR USE IN METHODS FOR TREATING CANCERS WITH ANTIBODY DRUG CONJUGATES (ADC)” (AGENSYS, INC., priority 2020, published 2023).
Where a SMILES comes first, the peptide text is derived from it. [ ]: non-standard residue; d: D form. The star is where a group is joined. Dolaproine = CO[C@@H]([C@@H]1CCCN1)[C@@H](C)C(=O)O; Dil = CC[C@H](C)[C@H](NC)[C@@H](CC(=O)O)OC; X1 = C[C@@H](N*)[C@@H](O)c1ccccc1; NMeV = CN[C@H](C(=O)O)C(C)C

Experiments:
T-24-Nectin-4 cells = assay: ICD cell surface markers (calreticulin, HSP70); format: cell-based, human; details: anti-nectin-4 ADC 1 ug/mL, MMAE 100 nM, compared with untreated or control hIgG-MMAE (1 mg/mL)
Text: FIG. 4A is a cartoon representation of the release of ATP and HMGB1 by cells treated with an anti-nectin-4 ADC and the effects of the released ATP and HMGB1 on macrophages. FIG. 4B is a cartoon representation of the release of ATP and HMGB1 by cells treated with an anti-nectin-4 ADC, the activation of the immune cells by the ATP and HMGB1, and the potential immunogenic cell death or immunogenic cell killing by the activated immune cells. FIG. 4C depicts ATP release in control T-24 cells and T-24 cells expressing nectin-4 after various treatments as indicated. FIG. 4D depicts ATP release in control UM-UC-3 cells and UM-UC-3 cells expressing nectin-4 after various treatments as indicated. FIG. 4E depicts HMGB1 release in control T-24 cells and T-24 cells expressing nectin-4 after various treatments as indicated. FIGS. 4F and 4G depict cell surface calreticulin (4F) and HSP70 (4G), respectively, in cells upon various treatments as indicated. Increase in ICD cell surface markers such as calreticulin or HSP70 can be detected on T-24-Nectin-4 cells upon treatment with an anti-nectin-4 ADC (1 ug/mL) or MMAE (100 nM) compared with untreated or treatment with the control hIgG-MMAE (1 mg/mL). In FIGS. 4C to 4G, EV and AGS-22C3E indicate the same anti-nectin-4 ADC.

phospho-JNK [1] = assay: Phospho-JNK western blot; format: cell-based; details: FIG. 9C
Experimental: T-24 Nectin-4 (clone1A9) cells were treated with an anti-nectin-4 ADC (AGS-22C3E) for 48 hours and stained with β-tubulin for microtubules and DAPI, a nuclear DNA stain. FIGS. 9B and 9C depict activation of phospho-INK in response to the treatment with an anti-nectin-4 ADC (AGS-22C3E). In FIG. 9B, western blots show an increase in phospho-JNK over a period of 48 hours upon treatment with an anti-nectin-4 ADC (AGS-22C3E) at 1 ug/mL). In FIG. 9C, Phosphorylation of JNK is observed in treatment with an anti-nectin-4 ADC (AGS-22C3E) and MMAE but absent in untreated or non-binding ADC control.

phospho-JNK [2] = assay: ER stress, phospho-JNK activation; format: cell-based
[3] = test system: acute myeloid leukemia (AML) at relapse; details: administered alone; cited from earlier work
human Nectin-4 = target: T1, human Nectin-4 (human, UniProt Q96NY8 32-510); assay: cell-based or functional assay
T1 sequence: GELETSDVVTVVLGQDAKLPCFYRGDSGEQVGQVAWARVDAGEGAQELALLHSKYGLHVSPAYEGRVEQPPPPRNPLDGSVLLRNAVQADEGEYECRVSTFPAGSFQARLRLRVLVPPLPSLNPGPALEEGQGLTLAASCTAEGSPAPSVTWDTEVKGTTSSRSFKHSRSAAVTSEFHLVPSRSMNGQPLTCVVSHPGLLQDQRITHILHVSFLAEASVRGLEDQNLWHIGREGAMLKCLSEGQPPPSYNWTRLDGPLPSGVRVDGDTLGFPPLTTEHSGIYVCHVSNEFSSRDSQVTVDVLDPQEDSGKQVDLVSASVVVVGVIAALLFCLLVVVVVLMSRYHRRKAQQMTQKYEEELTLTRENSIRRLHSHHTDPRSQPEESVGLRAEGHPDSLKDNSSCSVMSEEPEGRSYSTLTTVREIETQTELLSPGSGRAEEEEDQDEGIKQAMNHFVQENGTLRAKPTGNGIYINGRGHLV

CC[C@H](C)[C@@H]([C@@H](CC(=O)N1CCC[C@H]1[C@H](OC)[C@@H](C)C(=O)N[C@H](C)[C@@H](O)c1ccccc1)OC)N(C)C(=O)[C@@H](NC(=O)[C@@H](NC)C(C)C)C(C)C [MMAE, monomethyl auristatin E] (H-[NMeV]V[Dil][Dolaproine]-X1)
cell surface calreticulin (ICD marker) (T-24-Nectin-4 cells; FIG. 4F): Increase | cell surface HSP70 (ICD marker) (T-24-Nectin-4 cells; FIG. 4G): Increase | phosphorylation of JNK (phospho-JNK [1]): observed | phospho-JNK activation (phospho-JNK [2]): activates phospho-JNK

CT-011: anti-PD-1 antibody, a humanized antibody
response in AML at relapse [3]: failed to show response

B1: enfortumab vedotin (antibody, human IgG1, kappa, V domains shown)
VH: EVQLVESGGGLVQPGGSLRLSCAASGFTFSSYNMNWVRQAPGKGLEWVSYISSSSSTIYYADSVKGRFTISRDNAKNSLSLQMNSLRDEDTAVYYCARAYYYGMDVWGQGTTVTVSS
VL: DIQMTQSPSSVSASVGDRVTITCRASQGISGWLAWYQQKPGKAPKFLIYAASTLQSGVPSRFSGSGSGTDFTLTISSLQPEDFATYYCQQANSFPPTFGGGTKVEIKR
modifications: MMAE conjugated via a protease-cleavable maleimidocaproyl valine-citrulline (vc) linker on cysteine residues that comprise the interchain disulfide bonds; drug-to-antibody ratio approximately 3.8:1
Enfortumab vedotin Cytotoxicity IC50 (T-24 Nectin-4 Clone 1A9 cells; cell viability by CELL TITER-GLO 120 hours post-treatment) (human Nectin-4): 0.085 µg/mL | Enfortumab vedotin Cytotoxicity IC50 (UM-UC-3 Nectin-4 Clone 1D11 cells; cell viability by CELL TITER-GLO 120 hours post-treatment) (human Nectin-4): 0.006 µg/mL
